Measured values reported in ChEMBL document CHEMBL1201862, “PubChem BioAssay data set” (2004).
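A five-concentration, 48-hour dose response in 96-well plates underlies each endpoint, interpolated linearly between surrounding concentrations. GI50 marks 50% less growth.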 Active and inactive are the calls of the source. Rule as the data show it: active = GI50 up to about 1.1 µM and inactive = higher.

Columns and labels:
Assay in all cases: inhibition of tumour cell growth, NCI panel, 48 h
786-0 = tested on: 786-0
A498 = tested on: A498
A549 = tested on: A549
ACHN = tested on: ACHN
CAKI-1 = tested on: CAKI-1
CCRF-CEM = tested on: CCRF-CEM
COLO 205 = tested on: COLO 205
DU-145 = tested on: DU-145
EKVX = tested on: EKVX
HCC 2998 = tested on: HCC 2998
HCT-116 = tested on: HCT-116
HCT-15 = tested on: HCT-15
HL-60 = tested on: HL-60
HOP-62 = tested on: HOP-62
HOP-92 = tested on: HOP-92
HT-29 = tested on: HT-29
Hs-578T = tested on: Hs-578T
IGROV-1 = tested on: IGROV-1
K562 = tested on: K562
KM12 = tested on: KM12
LOX IMVI = tested on: LOX IMVI
M14 = tested on: M14
MCF7 = tested on: MCF7
MDA-MB-435 = tested on: MDA-MB-435
MDA-N = tested on: MDA-N
MOLT-4 = tested on: MOLT-4
Malme-3M = tested on: Malme-3M
NCI-H23 = tested on: NCI-H23
NCI-H460 = tested on: NCI-H460
NCI-H522 = tested on: NCI-H522
NCI/ADR-RES = tested on: NCI/ADR-RES
OVCAR-3 = tested on: OVCAR-3
OVCAR-4 = tested on: OVCAR-4
OVCAR-5 = tested on: OVCAR-5
OVCAR-8 = tested on: OVCAR-8
PC-3 = tested on: PC-3
RPMI-8226 = tested on: RPMI-8226
RXF 393 = tested on: RXF 393
SF-268 = tested on: SF-268
SF-295 = tested on: SF-295
SF-539 = tested on: SF-539
SK-MEL-28 = tested on: SK-MEL-28
SK-MEL-2 = tested on: SK-MEL-2
SK-MEL-5 = tested on: SK-MEL-5
SK-OV-3 = tested on: SK-OV-3
SNB-19 = tested on: SNB-19
SNB-75 = tested on: SNB-75
SR = tested on: SR
SW-620 = tested on: SW-620
T47D = tested on: T47D
TK-10 = tested on: TK-10
U-251 = tested on: U-251
UACC-257 = tested on: UACC-257
UACC-62 = tested on: UACC-62
UO-31 = tested on: UO-31
MDA-MB-231 = tested on: MDA-MB-231
NCI-H226 = tested on: NCI-H226
SN12C = tested on: SN12C

CN1CCN(c2nc3ccccc3nc2C(=O)c2ccc(Cl)cc2)CC1
GI50 (786-0): 33.1 µM (inactive) | GI50 (A498): 41.7 µM (inactive) | GI50 (A549): 54.2 µM (inactive) | GI50 (ACHN): > 100 µM (inactive) | GI50 (CAKI-1): 40.4 µM (inactive) | GI50 (CCRF-CEM): 48.6 µM (inactive) | GI50 (COLO 205): 35.8 µM (inactive) | GI50 (DU-145): > 100 µM (inactive) | GI50 (EKVX): 86.3 µM (inactive) | GI50 (HCC 2998): 33.7 µM (inactive) | GI50 (HCT-116): 35.2 µM (inactive) | GI50 (HCT-15): 55.6 µM | GI50 (HL-60): 31 µM (inactive) | GI50 (HOP-62): 59.4 µM (inactive) | GI50 (HOP-92): 26.5 µM (inactive) | GI50 (HT-29): 38.2 µM (inactive) | GI50 (Hs-578T): 56.2 µM (inactive) | GI50 (IGROV-1): 83.6 µM (inactive) | GI50 (K562): 40.8 µM (inactive) | GI50 (KM12): 35.1 µM (inactive) | GI50 (LOX IMVI): 40.6 µM (inactive) | GI50 (M14): 22.2 µM (inactive) | GI50 (MCF7): 27.7 µM (inactive) | GI50 (MDA-MB-435): 44.5 µM (inactive) | GI50 (MDA-N): 36.9 µM (inactive) | GI50 (MOLT-4): 65 µM (inactive) | GI50 (Malme-3M): 16.7 µM (inactive) | GI50 (NCI-H23): 49.4 µM (inactive) | GI50 (NCI-H460): 27.1 µM (inactive) | GI50 (NCI-H522): 38.1 µM (inactive) | GI50 (NCI/ADR-RES): 54.5 µM (inactive) | GI50 (OVCAR-3): 44 µM (inactive) | GI50 (OVCAR-4): 58.6 µM (inactive) | GI50 (OVCAR-5): > 100 µM (inactive) | GI50 (OVCAR-8): 69 µM (inactive) | GI50 (PC-3): 51.2 µM (inactive) | GI50 (RPMI-8226): 22.2 µM (inactive) | GI50 (RXF 393): 24.5 µM (inactive) | GI50 (SF-268): 46.9 µM (inactive) | GI50 (SF-295): 36.3 µM (inactive) | GI50 (SF-539): 69.2 µM (inactive) | GI50 (SK-MEL-28): 50.7 µM (inactive) | GI50 (SK-MEL-2): 58.5 µM (inactive) | GI50 (SK-MEL-5): 14.5 µM (inactive) | GI50 (SK-OV-3): > 100 µM (inactive) | GI50 (SNB-19): > 100 µM (inactive) | GI50 (SNB-75): > 100 µM (inactive) | GI50 (SR): 47.4 µM (inactive) | GI50 (SW-620): 61 µM (inactive) | GI50 (T47D): 45.6 µM (inactive) | GI50 (TK-10): 35.6 µM (inactive) | GI50 (U-251): 57.1 µM (inactive) | GI50 (UACC-257): 36.1 µM (inactive) | GI50 (UACC-62): 28.5 µM (inactive) | GI50 (UO-31): 31 µM (inactive)

C=CCC(NCc1ccccc1)[C@H](OCc1ccccc1)[C@@H]1COC(C)(C)O1 (stereo not given in full)
GI50 (786-0): 30.4 µM (inactive) | GI50 (A498): 45.6 µM (inactive) | GI50 (A549): 39 µM (inactive) | GI50 (ACHN): 42.6 µM (inactive) | GI50 (CCRF-CEM): 28.1 µM (inactive) | GI50 (COLO 205): 14.5 µM (inactive) | GI50 (DU-145): 97.3 µM (inactive) | GI50 (EKVX): 32.5 µM (inactive) | GI50 (HCT-116): 23.7 µM (inactive) | GI50 (HCT-15): 23.7 µM | GI50 (HOP-62): 55.1 µM (inactive) | GI50 (HOP-92): 12.7 µM (inactive) | GI50 (HT-29): 11.7 µM (inactive) | GI50 (Hs-578T): 24.7 µM (inactive) | GI50 (IGROV-1): 35.8 µM (inactive) | GI50 (K562): 23.7 µM (inactive) | GI50 (KM12): 29.8 µM (inactive) | GI50 (LOX IMVI): 26 µM (inactive) | GI50 (M14): 36.2 µM (inactive) | GI50 (MCF7): 29.4 µM (inactive) | GI50 (MDA-MB-231): > 100 µM (inactive) | GI50 (MDA-MB-435): 36.1 µM (inactive) | GI50 (MDA-N): 31.8 µM (inactive) | GI50 (MOLT-4): 23.7 µM (inactive) | GI50 (Malme-3M): 22.6 µM (inactive) | GI50 (NCI-H226): 15.6 µM (inactive) | GI50 (NCI-H23): 28.3 µM (inactive) | GI50 (NCI/ADR-RES): 46.8 µM (inactive) | GI50 (OVCAR-3): 44.9 µM (inactive) | GI50 (OVCAR-4): 44.7 µM (inactive) | GI50 (OVCAR-5): 46.2 µM (inactive) | GI50 (OVCAR-8): 35.2 µM (inactive) | GI50 (PC-3): 31.9 µM (inactive) | GI50 (RPMI-8226): 18.5 µM (inactive) | GI50 (SF-268): 44.9 µM (inactive) | GI50 (SF-295): 27.8 µM (inactive) | GI50 (SK-MEL-28): 47.1 µM (inactive) | GI50 (SK-MEL-2): 19.6 µM (inactive) | GI50 (SK-MEL-5): 23 µM (inactive) | GI50 (SK-OV-3): 79.3 µM (inactive) | GI50 (SN12C): 43.4 µM (inactive) | GI50 (SNB-19): 72.8 µM (inactive) | GI50 (SNB-75): 49 µM (inactive) | GI50 (SR): 21.1 µM (inactive) | GI50 (SW-620): 41.9 µM (inactive) | GI50 (TK-10): 23.8 µM (inactive) | GI50 (U-251): 37.6 µM (inactive) | GI50 (UACC-257): 22.9 µM (inactive) | GI50 (UACC-62): 40.6 µM (inactive) | GI50 (UO-31): 22.9 µM (inactive)
